The subject of experiment [1] is U-251. Kind of experiment: Antiproliferative activity against human U-251 cells after 48 hrs by MTT assay. The class given is functional, cell-based. The settings on record: U-251, 48 h. In general terms: Tetrazolium assays rely on reduction of a dye to a coloured formazan, in cell work by metabolically active cells.
Experiment [2] relates to A549. The experiment in a line: Cell cycle arrest in human A549 cells assessed as G2/M phase at 500 nM measured after 24 hrs by propidium iodide staining based flow cytometry analysis (reference value: 6.08%). The class given is functional. (Flow cytometry measures light scatter and fluorescence of single cells or particles in a stream.)
Experiment [3] relates to A549. Kind of experiment: Cell cycle arrest in human A549 cells assessed as S phase at 500 nM measured after 24 hrs by propidium iodide staining based flow cytometry analysis (reference value: 14.78%). The class given is functional.
For experiment [4], the system named is A549. Kind of experiment: Cell cycle arrest in human A549 cells assessed as G0/G1 phase at 200 nM measured after 24 hrs by propidium iodide staining based flow cytometry analysis (reference value: 79.14%). The class given is functional.
The subject of experiment [5] is A549. The experiment in a line: Cell cycle arrest in human A549 cells assessed as S phase at 200 nM measured after 24 hrs by propidium iodide staining based flow cytometry analysis (reference value: 14.78%). The class given is functional.
Experiment [6] deals with U-251. The experiment in a line: Cell cycle arrest in human U-251 cells assessed as G2/M phase at 500 nM measured after 24 hrs by propidium iodide staining based flow cytometry analysis (reference value: 14.43%). The class given is functional.
The subject of experiment [7] is U-251. The experiment in a line: Cell cycle arrest in human U-251 cells assessed as S phase at 500 nM measured after 24 hrs by propidium iodide staining based flow cytometry analysis (reference value: 18.23%). The class given is functional.
The test system of experiment [8] is A549. The experiment in a line: Induction of apoptosis in human A549 cells assessed as increase in apoptotic cells at 500 nM measured after 24 hrs by PI/FITC analysis (reference value: 1.437%). The class given is functional.
In experiment [9] the test system is A549. Kind of experiment: Induction of apoptosis in human A549 cells assessed as increase in necrotic cells at 500 nM measured after 24 hrs by PI/FITC analysis (reference value: 0.365%). The class given is functional.
The subject of experiment [10] is A549. The experiment in a line: Induction of apoptosis in human A549 cells assessed as increase in early apoptotic cells at 50 nM measured after 24 hrs by PI/FITC analysis (reference value: 0.955%). The class given is functional.
Experiment [11] concerns A549. Kind of experiment: Induction of apoptosis in human A549 cells assessed as increase in late apoptotic cells at 50 nM measured after 24 hrs by PI/FITC analysis (reference value: 0.955%). The class given is functional.
Experiment [12] relates to A549. The experiment in a line: Induction of apoptosis in human A549 cells assessed as increase in viable cells at 200 nM measured after 24 hrs by PI/FITC analysis (reference value: 98.4%). The class given is functional.
For experiment [13], the system named is A549. The experiment in a line: Induction of apoptosis in human A549 cells assessed as increase in early apoptotic cells at 200 nM measured after 24 hrs by PI/FITC analysis (reference value: 0.955%). The class given is functional.
Experiment [14] relates to A549. The experiment in a line: Induction of apoptosis in human A549 cells assessed as increase in necrotic cells at 200 nM measured after 24 hrs by PI/FITC analysis (reference value: 0.365%). The class given is functional.
The test system of experiment [15] is U-251. The experiment in a line: Induction of apoptosis in human U-251 cells assessed as increase in early apoptotic cells at 500 nM measured after 24 hrs by PI/FITC analysis (reference value: 1.12%). The class given is functional.
Experiment [16] concerns U-251. The experiment in a line: Induction of apoptosis in human U-251 cells assessed as increase in necrotic cells at 500 nM measured after 24 hrs by PI/FITC analysis (reference value: 0.301%). The class given is functional.
The subject of experiment [17] is A549. Kind of experiment: Cell cycle arrest in human A549 cells assessed as increase in cyclin B1 expression by Western blot analysis. The class given is functional, cell-based. The settings on record: dose 50-500 nM.

As a reminder, the IC50 is the concentration needed to halve the response being measured. Lower therefore signals higher potency. In the experiment with U-251 [1], `COc1cc(-c2cccc3nc(-c4ccc5cc[nH]c5c4)oc23)cc(OC)c1OC` gave an IC50 of 300 nM. The Activity with A549 [2] was found to be 68.09%; in the experiment on A549 [3], 28.03%; in the experiment on A549 [4], 15.24%; in the experiment on A549 [5], 23.43%; in the experiment with U-251 [6], 42.9%; in the experiment with U-251 [7], 22.47%. Besides, the Activity with A549 [8] is 26.5%; in the experiment on A549 [9], 2.84%; in the experiment with A549 [10], 5.32%; in the experiment with A549 [11], 7.23%; with A549 [12] it was 79.8%; in the experiment with A549 [13], 9.7%. For the same molecule, the Activity in the experiment with A549 [14] is 1.61%; in the experiment on U-251 [15], 4.61%; in the experiment with U-251 [16] it was 2.92%; in the experiment on A549 [17] it was “Dose-Dependent Effect”.

(Values after ChEMBL document CHEMBL4831506, “Discovery of novel trimethoxyphenylbenzo[d]oxazoles as dual tubulin/PDE4 inhibitors capable of inducing apoptosis at G2/M phase arrest in glioma and lung cancer cells” (Eur J Med Chem, 2021).)
